Experimental data reported in US20070135383A1, “Phospholipase inhibitors, including multi-valent phospholipase inhibitors, and use thereof, including as lumen-localized phospholipase inhibitors” (priority 2005, published 2007).

Biological target: T1, Porcine PLA2 IB (Sus scrofa, UniProt P00592)
T1 construct: purchased
Experiment: Continuous fluorimetric PLA2 assay, PPyrPG vesicles (Example 1B-1)
Assay type: biochemical
Details: restated in Example 10, refers to Example 1B-1; read-out: IC-50 value
From the text: A continuous fluorimetric assay for PLA2 activity described in the literature was used to determine IC (Leslie, C C and Gelb, M H (2004) Methods in Molecular Biology “Assaying phospholipase A2 activity”, 284: 229-242, Singer, A G, et al. (2002) Journal of Biological Chemistry “Interfacial kinetic and binding properties of the complete set of human and mouse groups I, II, V, X, and XII secreted phospholipases A2”, 277: 48535-48549, Bezzine, S, et al. (2000) Journal of Biological Chemistry “Exogenously added human group X secreted phospholipase A(2) but not the group IB, IIA, and V enzymes efficiently release arachidonic acid from adherent mammalian cells”, 275: 3179-3191) and references therein.
Generally, this assay used a phosphatidylglycerol (or phosphatidylmethanol) substrate with a pyrene fluorophore on the terminal end of the sn-2 fatty acyl chain. […] The effect of a given inhibitor and inhibitor concentration on any given phospholipase can be determined. […]
In this example, the procedure was performed as follows: • 1. […] The fluorescence was read using an excitation of 342 nm and an emission of 395 nm.
In this example, the IC50 was calculated using the BioDataFit 1.02 (Four Parameter Model) software package. […]

T1 sequence (P00592 23-146): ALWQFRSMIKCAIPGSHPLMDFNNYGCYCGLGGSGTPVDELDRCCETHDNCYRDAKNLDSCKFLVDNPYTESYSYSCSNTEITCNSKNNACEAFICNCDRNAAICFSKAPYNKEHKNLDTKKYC

SMILES: Cc1c(C(=O)C(N)=O)c2c(OCC(=O)O)cccc2n1Cc1ccccc1-c1ccccc1 [ILY-4001, 2-(3-(2-amino-2-oxoacetyl)-1-(biphenyl-2-ylmethyl)-2-methyl-1H-indol-4-yloxy)acetic acid]
- IC50: ~62 nM
